Laboratory results taken from ChEMBL document CHEMBL3046523, “Protection of protein carbonyl formation by quercetin in erythrocytes subjected to oxidative stress” (Med Chem Res, 2010).

Tests used:
Erythrocyte [1] = assay: Antioxidant activity in Homo sapiens (human) erythrocytes assessed as protection against t-BHP-induced oxidative stress at 0.1 to 100 uM; format: functional, cell-based; settings: TDE = time-dependent effect
Erythrocyte [2] = assay: Antioxidant activity in Homo sapiens (human) erythrocytes assessed as protection against t-BHP-induced oxidative stress measured up to 180 min; format: functional, cell-based
[3] = Antioxidant activity in plasma assessed as ABTS radical scavenging activity relative to trolox; format: functional, cell-free

What does the source list for `O=c1c(O)c(-c2ccc(O)c(O)c2)oc2cc(O)cc(O)c12`?
Activity (Erythrocyte [1]): tde; Activity (Erythrocyte [2]): Dose-dependent effect; fold change (FC) [3]: 6
